The target of this test is STAT3 (Homo sapiens, UniProt P40763). In words: Quantitation of STAT3 degradation in A549 cells by Western blot. In kind it is cell-based. Also on record: expressed in transfected cells; host or cells: A549. The method in brief: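 A549 cells treated 24 h at 37° C with compound at 30, 10, 3, 1, 0.3 μM or DMSO; RIPA lysates analysed by SDS-PAGE/Western blot for total STAT3, β-actin as loading control, LI-COR fluorescence read-out. DC50 derived by sigmoidal fit of dose-dependent degradation.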
Sequence of STAT3 (P40763 whole entry): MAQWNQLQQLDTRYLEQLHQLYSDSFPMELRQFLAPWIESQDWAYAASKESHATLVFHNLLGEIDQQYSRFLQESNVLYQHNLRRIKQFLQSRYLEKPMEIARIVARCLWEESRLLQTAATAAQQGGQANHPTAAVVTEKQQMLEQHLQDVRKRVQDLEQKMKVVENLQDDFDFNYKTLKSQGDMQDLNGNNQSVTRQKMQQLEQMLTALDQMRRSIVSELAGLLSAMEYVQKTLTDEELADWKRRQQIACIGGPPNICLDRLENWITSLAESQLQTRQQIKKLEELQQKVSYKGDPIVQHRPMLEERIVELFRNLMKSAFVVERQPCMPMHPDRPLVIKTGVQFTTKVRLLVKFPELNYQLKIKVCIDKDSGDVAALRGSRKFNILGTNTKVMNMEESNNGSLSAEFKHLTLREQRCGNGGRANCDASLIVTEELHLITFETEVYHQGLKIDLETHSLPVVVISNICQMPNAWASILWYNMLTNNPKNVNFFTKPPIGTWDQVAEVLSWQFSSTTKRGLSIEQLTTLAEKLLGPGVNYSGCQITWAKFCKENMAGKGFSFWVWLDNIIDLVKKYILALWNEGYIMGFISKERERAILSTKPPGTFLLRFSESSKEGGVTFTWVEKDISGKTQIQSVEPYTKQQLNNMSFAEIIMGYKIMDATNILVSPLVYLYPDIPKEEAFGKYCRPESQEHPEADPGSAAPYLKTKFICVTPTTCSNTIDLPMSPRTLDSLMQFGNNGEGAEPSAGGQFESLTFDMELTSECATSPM
A general note: Immunoblotting shows a protein as a band on a membrane.

Setting [1] is: read-out: A549 DC50, 24 hours, tested up to 30 μM or 10 μM.
Setting [2] is: 24 hours, tested up to 30 μM or 10 μM, read-out: A549 DC50.

SMILES strings stand for the structures. Read-outs that look alike come from different tables or passages of the source.

The values that follow come from US12077555B2, “STAT degraders and uses thereof” (Kymera Therapeutics, Inc., priority 2019, dated 2024).

For the molecule `C[C@@H](OCc1ccc(CCCCCCc2ccc3c(c2)n(C)c(=O)n3C2CCC(=O)NC2=O)cc1)[C@H](CCC(N)=O)NC(=O)[C@@H]1Cc2cccc3c2N1C(=O)[C@@H](NC(=O)c1cc2cc(C(=O)P(=O)(O)O)ccc2[nH]1)CC3` (stereo partly drawn) [Compound I-118, diammonium 2-[[(2S,11S)-2-[[(3S,4R)-1-carbamoyl-4-[(4-[6-[1-(2,6-dioxopiperidin-3-yl)-3-methyl-2-oxo-1,3-benzodiazol-5-yl]hexyl]phenyl)methoxy]pentan-3-yl]carbamoyl]-12-oxo-1-azatricyclo[6.4.1.0^[4,13]]trideca-4(13),5,7-trien-11-yl]carbamoyl]-1H-indole-5-carbonylphosphonate], under setting [1], the DC50 (as a rule, the midpoint of the concentration-degradation curve) is more than 30 µM.

Turning to `C/C(=C\C(=O)N[C@H]1CCc2cccc3c2N(C1=O)[C@H](C(=O)N[C@@H](CCC(N)=O)[C@@H](C)OCc1ccc(CCCOCc2cccc4c2n(C)c(=O)n4C2CCC(=O)NC2=O)cc1)C3)c1ccc(C(F)(F)P(=O)(OCOC(=O)C(C)(C)C)OCOC(=O)C(C)(C)C)cc1` (stereo partly drawn) [Compound I-5, [([4-[(1E)-1-[[(2S,11S)-2-[[(3S,4R)-1-carbamoyl-4-[[4-(3-[[1-(2,6-dioxopiperidin-3-yl)-3-methyl-2-oxo-1,3-benzodiazol-4-yl]methoxy]propyl)phenyl]methoxy]pentan-3-yl]carbamoyl]-12-oxo-1-azatricyclo[6.4.1.0^[4,13]]trideca-4(13),5,7-trien-11-yl]carbamoyl]prop-1-en-2-yl]phenyl]difluoromethyl([(2,2-dimethylpropanoyl)oxy]methoxy)phosphoryl)oxy]methyl 2,2-dimethylpropanoate], under setting [1], the DC50 is more than 30 µM.

`C/C(=C\C(=O)N[C@H]1CCc2cccc3c2N(C1=O)[C@H](C(=O)N[C@@H](CCC(N)=O)[C@@H](C)OCc1ccc(CCCOCCOCCOCCOCCOc2cc(-c4scnc4C)ccc2CNC(=O)[C@@H]2C[C@@H](O)CN2C(=O)[C@@H](NC(=O)C2(F)CC2)C(C)(C)C)cc1)C3)c1ccc(C(F)(F)P(=O)(OCOC(=O)C(C)(C)C)OCOC(=O)C(C)(C)C)cc1` [Compound I-16]: under setting [2], the DC50 was more than 30 µM.

On to `Cc1ncsc1-c1ccc(CNC(=O)[C@@H]2C[C@@H](O)CN2C(=O)[C@@H](NC(=O)CCCCc2cccc(CO[C@H](C)[C@H](CCC(N)=O)NC(=O)[C@@H]3Cc4cccc5c4N3C(=O)[C@@H](NC(=O)c3cc4cc(C(=O)P(=O)(O)O)ccc4[nH]3)CC5)c2)C(C)(C)C)cc1` [Compound I-95, diammonium 2-[[(2S,11S)-2-[[(3S,4R)-1-carbamoyl-4-[[3-(4-[[(2S)-1-[(2S,4R)-4-hydroxy-2-([[4-(4-methyl-1,3-thiazol-5-yl)phenyl]methyl]carbamoyl)pyrrolidin-1-yl]-3,3-dimethyl-1-oxobutan-2-yl]carbamoyl]butyl)phenyl]methoxy]pentan-3-yl]carbamoyl]-12-oxo-1-azatricyclo[6.4.1.0^[4,13]]trideca-4(13),5,7-trien-11-yl]carbamoyl]-1H-indole-5-carbonylphosphonate], for which, under setting [1], the DC50 was less than 30 µM.

Consider `C/C(=C\C(=O)N[C@H]1CCc2cccc3c2N(C1=O)[C@H](C(=O)N[C@@H](CCC(N)=O)[C@@H](C)OCc1ccc(CCCCCCC(=O)N[C@H](C(=O)N2C[C@H](O)C[C@H]2C(=O)NCc2ccc(-c4scnc4C)cc2)C(C)(C)C)cc1)C3)c1ccc(C(F)(F)P(=O)(OCOC(=O)C(C)(C)C)OCOC(=O)C(C)(C)C)cc1` [Compound I-28], for which, under setting [1], the DC50 is less than 30 µM.

On to `C/C(=C\C(=O)N[C@H]1CN(C(=O)CCCCCc2ccc3c(c2)n(C)c(=O)n3C2CCC(=O)NC2=O)CC[C@H]2CC[C@@H](C(=O)N[C@@H](CCC(N)=O)C(=O)NC(c3ccccc3)c3ccccc3)N2C1=O)c1ccc(C(F)(F)P(=O)(O)O)cc1` (stereo partly drawn) [Compound I-114, [4-[(1E)-1-[[(5S,8S,10aR)-8-[[(1S)-3-carbamoyl-1-(diphenylmethylcarbamoyl)propyl]carbamoyl]-3-[6-[1-(2,6-dioxopiperidin-3-yl)-3-methyl-2-oxo-1,3-benzodiazol-5-yl]hexanoyl]-6-oxo-octahydropyrrolo[1,2-a][1,5]diazocin-5-yl]carbamoyl]prop-1-en-2-yl]phenyl]difluoromethylphosphonic acid], for which the DC50 under setting [1] is more than 30 µM.

Turning to `C/C(=C\C(=O)N[C@H]1CCc2cccc3c2N(C1=O)[C@H](C(=O)N[C@@H](CCC(N)=O)[C@@H](C)OCc1ccc(CCC(=O)N[C@H](C(=O)N2C[C@H](O)CC2C(=O)NCc2ccc(-c4scnc4C)cc2)C(C)(C)C)cc1)C3)c1ccc(C(F)(F)P(=O)(OCOC(=O)C(C)(C)C)OCOC(=O)C(C)(C)C)cc1` (some centres unmarked) [Compound I-12], the DC50 under setting [1] was more than 30 µM.

Take `C/C(=C\C(=O)N[C@H]1CCc2cccc3c2N(C1=O)[C@H](C(=O)N[C@@H](CCC(N)=O)[C@@H](C)OCc1ccc(CCOCC(=O)N[C@H](C(=O)N2C[C@H](O)C[C@H]2C(=O)NCc2ccc(-c4scnc4C)cc2)C(C)(C)C)cc1)C3)c1ccc(C(F)(F)P(=O)(OCOC(=O)C(C)(C)C)OCOC(=O)C(C)(C)C)cc1` [Compound I-13]: the DC50 under setting [2] is less than 30 µM.

With `Cc1ncsc1-c1ccc(CNC(=O)[C@@H]2C[C@@H](O)CN2C(=O)[C@@H](NC(=O)CCCCCc2ccc(CO[C@H](C)[C@H](CCC(N)=O)NC(=O)[C@@H]3Cc4cccc5c4N3C(=O)[C@@H](NC(=O)c3cc4cc(C(=O)P(=O)(O)O)ccc4[nH]3)CC5)cc2)C(C)(C)C)cc1` [Compound I-117, (2-(((3S,6S)-6-(((2R,3S)-6-amino-2-((4-(6-(((S)-1-((2S,4R)-4-hydroxy-2-((4-(4-methylthiazol-5-yl)benzyl)carbamoyl)pyrrolidin-1-yl)-3,3-dimethyl-1-oxobutan-2-yl)amino)-6-oxohexyl)benzyl)oxy)-6-oxohexan-3-yl)carbamoyl)-4-oxo-1,2,3,4,6,7-hexahydroazepino[3,2,1-hi]indol-3-yl)carbamoyl)-1H-indole-5-carbonyl)phosphonic acid], under setting [1], the DC50 was less than 30 µM.

`C/C(=C\C(=O)N[C@H]1CCc2cccc3c2N(C1=O)[C@H](C(=O)N[C@@H](CCC(N)=O)[C@@H](C)OCc1ccc(CCCOCCOCCOCCOCCCc2ccc4c(c2)n(C)c(=O)n4C2CCC(=O)NC2=O)cc1)C3)c1ccc(C(F)(F)P(=O)(OCOC(=O)C(C)(C)C)OCOC(=O)C(C)(C)C)cc1` (some centres unmarked) [Compound I-60]: the DC50 under setting [1] was more than 30 µM.

`Cn1c(=O)n(C2CCC(=O)NC2=O)c2cccc(CCCCC(=O)N3CC[C@H]4CC[C@@H](C(=O)N[C@@H](CCC(N)=O)C(=O)NC(c5ccccc5)c5ccccc5)N4C(=O)[C@@H](NC(=O)c4cc5cc(C(=O)P(=O)(O)O)ccc5[nH]4)C3)c21` (stereo partly drawn) [Compound I-88, 2-[[(5S,8S,10aR)-8-[[(1S)-3-carbamoyl-1-(diphenylmethylcarbamoyl)propyl]carbamoyl]-3-[5-[1-(2,6-dioxopiperidin-3-yl)-3-methyl-2-oxo-1,3-benzodiazol-4-yl]pentanoyl]-6-oxo-octahydropyrrolo[1,2-a][1,5]diazocin-5-yl]carbamoyl]-1H-indole-5-carbonylphosphonic acid]: the DC50 under setting [1] was more than 30 µM.

Take `C/C(=C\C(=O)N[C@H]1CCc2cccc3c2N(C1=O)[C@H](C(=O)N[C@@H](CCC(N)=O)[C@@H](C)OCc1ccc(CCCOCCOCCOCCCc2ccc4c(c2)n(C)c(=O)n4C2CCC(=O)NC2=O)cc1)C3)c1ccc(C(F)(F)P(=O)(OCOC(=O)C(C)(C)C)OCOC(=O)C(C)(C)C)cc1` (some centres unmarked) [Compound I-55]: the DC50 under setting [1] is more than 30 µM.

In the case of `C/C(=C\C(=O)N[C@H]1CCc2cccc3c2N(C1=O)[C@H](C(=O)N[C@@H](CCC(N)=O)[C@@H](C)OCc1ccc(CCCCOc2cc(-c4scnc4C)ccc2CNC(=O)[C@@H]2C[C@@H](O)CN2C(=O)[C@@H](NC(=O)C2(F)CC2)C(C)(C)C)cc1)C3)c1ccc(C(F)(F)P(=O)(OCOC(=O)C(C)(C)C)OCOC(=O)C(C)(C)C)cc1` [Compound I-26], the DC50 under setting [1] was more than 10 µM.

Regarding `C/C(=C\C(=O)N[C@H]1CCc2cccc3c2N(C1=O)[C@H](C(=O)N[C@@H](CCC(N)=O)[C@@H](C)OCc1ccc(CCCC(=O)N[C@H](C(=O)N2C[C@H](O)C[C@H]2C(=O)NCc2ccc(-c4scnc4C)cc2)C(C)(C)C)cc1)C3)c1ccc(C(F)(F)P(=O)(OCOC(=O)C(C)(C)C)OCOC(=O)C(C)(C)C)cc1` [Compound I-7], the DC50 under setting [1] was less than 30 µM.

Take `C/C(=C\C(=O)N[C@H]1CCc2cccc3c2N(C1=O)[C@H](C(=O)N[C@@H](CCC(N)=O)[C@@H](C)OCc1ccc(CCCCCc2cccc4c2n(C)c(=O)n4C2CCC(=O)NC2=O)cc1)C3)c1ccc(C(F)(F)P(=O)(OCOC(=O)C(C)(C)C)OCOC(=O)C(C)(C)C)cc1` (stereo partly drawn) [Compound I-6, [([4-[(1E)-1-[[(2S,11S)-2-[[(3S,4R)-1-carbamoyl-4-[(4-[5-[1-(2,6-dioxopiperidin-3-yl)-3-methyl-2-oxo-1,3-benzodiazol-4-yl]pentyl]phenyl)methoxy]pentan-3-yl]carbamoyl]-12-oxo-1-azatricyclo[6.4.1.0^[4,13]]trideca-4(13),5,7-trien-11-yl]carbamoyl]prop-1-en-2-yl]phenyl]difluoromethyl([(2,2-dimethylpropanoyl)oxy]methoxy)phosphoryl)oxy]methyl 2,2-dimethylpropanoate]: the DC50 under setting [1] was more than 30 µM.

As for `C/C(=C\C(=O)N[C@H]1CCc2cccc3c2N(C1=O)[C@H](C(=O)N[C@@H](CCC(N)=O)[C@@H](C)OCc1ccc(CCOCCOCCOCCOCC(=O)N[C@H](C(=O)N2C[C@H](O)C[C@H]2C(=O)NCc2ccc(-c4scnc4C)cc2)C(C)(C)C)cc1)C3)c1ccc(C(F)(F)P(=O)(OCOC(=O)C(C)(C)C)OCOC(=O)C(C)(C)C)cc1` [Compound I-27], under setting [1], the DC50 was more than 10 µM.

`C/C(=C\C(=O)N[C@H]1CN(C(=O)CCCCCC#Cc2cccc3c2CN(C2CCC(=O)NC2=O)C3=O)CC[C@H]2CC[C@@H](C(=O)N[C@@H](CCC(N)=O)C(=O)NC(c3ccccc3)c3ccccc3)N2C1=O)c1ccc(CP(=O)(O)O)cc1` (stereo partly drawn) [Compound I-89, diammonium [4-[(1E)-1-[[(5S,8S,10aR)-8[[(1S)-3-carbamoyl-1-(diphenylmethylcarbamoyl)propyl]carbamoyl]-3-[8-[2-(2,6-dioxopiperidin-3-yl)-1-oxo-3H-isoindol-4-yl]oct-7-ynoyl]-6-oxo-octahydropyrrolo[1,2-a][1,5]diazocin-5-yl]carbamoyl]prop-1-en-2-yl]phenyl]methylphosphonate]: the DC50 under setting [1] is less than 30 µM.
